Results from patent publication US10758467B2, “Highly substantive water-soluble UV absorbers and process for preparation thereof” (GALAXY SURFACTANTS LTD., priority 2018, dated 2020).

What was measured:
[1] = UV absorption (molar extinction coefficient); assay type: physicochemical
[2] = system: Escherichia coli ATCC 10142; test: Minimum growth inhibitory concentration; assay type: cell-based
Excerpt: (§1) The doubly quaternized UV absorbers of Formula I (R═C8H17 to C22H45) according to the invention show decent antimicrobial properties. The minimum growth inhibitory concentrations against G +ve, G −ve bacteria and against the yeast for two compounds of Formula I of Example 3 and Example 4 are given in the Table III. This antimicrobial property is useful for preservation of personal care formulations. The antimicrobial activity against dandruff causing microorganism, Malassezia furfur is useful for hair care applications.

[3] = system: Staphylococcus aureus ATCC6538; test: Minimum growth inhibitory concentration; assay type: cell-based
Excerpt: as §1

[4] = system: Candida albicans ATCC 10231; test: Minimum growth inhibitory concentration; assay type: cell-based
Excerpt: as §1

[5] = system: Pseudomonas aeruginosa Immune type IV; test: Minimum growth inhibitory concentration; assay type: cell-based
Excerpt: as §1

[6] = system: Malassezia furfur MTCC 1374; test: Minimum growth inhibitory concentration; assay type: cell-based
Excerpt: as §1

[7] = system: Propionibacterium acnesMTCC 1951; test: Minimum growth inhibitory concentration; assay type: cell-based, Propionibacterium acnes
Excerpt: as §1

[8] = Surface-active properties (surface tension of water, CMC); assay type: physicochemical
Description: They reduce the surface tension of water from 72 Mn/m to 35 Mn/m at 1.0% concentration, at 30° C. These quaternized UV absorbers behave like cationic surface active agents and can be easily titrated against an anionic surfactant as a standard for two-phase titration for the determination of active matter.
Critical micelle concentration at 25° C. is 2.29×10^−3 mM

[9] = Zeta potential (Zetasizer Nano, Malvern) and charge density; assay type: physicochemical; settings: for Zeta potential: 1% dispersion
Excerpt: Zeta potential of 1% dispersion of doubly quaternized UV absorber, Formula I, R═C18H37 and R1═OCH3 is found to be […] (Zetasizer Nano, Malvern). […] Also the high zeta potential (+46 mV) ensures the stability of colloidal formulations.
Molar extinction coefficient, ∈, in water: 19,700 mol^−1cm^−1 at 307 nm. Zeta potential: +46 mV, Charge density: 0.3066 meq/gram

| Structure (SMILES) | minimum growth inhibitory concentration [2] [%] | minimum growth inhibitory concentration [3] [%] | minimum growth inhibitory concentration [4] [%] | minimum growth inhibitory concentration [5] [%] | minimum growth inhibitory concentration [6] [%] | minimum growth inhibitory concentration [7] [%] | other results |
| --- | --- | --- | --- | --- | --- | --- | --- |
| COc1ccc(C=CC(=O)NCCCN(C)C)cc1 [Example 1, p-methoxycinnamido propyldimethylamine] |  |  |  |  |  |  | Molar extinction coefficient, ∈ ([1]; in methanol, at 290 nm): 24,224 |
| COc1ccc(C=CC(=O)NCCC[N+](C)(C)CC(O)C[N+](C)(C)C)cc1.[Cl-].[Cl-] (stereo not shown) [Example 2, p-methoxy cinnamidopropyl (2-hydroxypropyl trimethyl ammonium chloride) dimonium chloride] |  |  |  |  |  |  | Molar extinction coefficient, ∈ ([1]; in water, at 290 nm): 22,000 mol^−1cm^−1 |
| CCCCCCCCCCCC[N+](C)(C)CC(O)C[N+](C)(C)CCCNC(=O)C=Cc1ccc(OC)cc1.[Cl-].[Cl-] (stereo not shown) [Example 3, p-methoxy cinnamidopropyl (2-hydroxypropyl lauryl dimethyl ammonium chloride) dimonium chloride] | 0.4 | 0.3 | 0.3 | 0.4 | 0.5 | 0.5 | Molar extinction coefficient, ∈ ([1]; in water, at 305 nm): 19,500 mol^−1cm^−1 |
| CCCCCCCCCCCCCCCCCC[N+](C)(C)CC(O)C[N+](C)(C)CCCNC(=O)/C=C/c1ccc(OC)cc1 (stereo not shown) [Example 4, p-methoxy cinnamidopropyl (2-hydroxypropyl stearyl dimethyl ammonium chloride) dimonium chloride] | 0.3 | 0.2 | 0.3 | 0.4 | 0.6 | 0.4 | Surface effectiveness [8]: 34.2 mN/m; surface efficiency (−log C20) [8]: 6.23; Critical micelle concentration ([8]; at 25° C.): 0.00229 mM; Molar extinction coefficient, ∈ ([1]; in water, at 307 nm): 19,700 mol^−1cm^−1; Charge density [9]: 0.3066 meq/gram; Zeta potential [9]: +46 mV; Zeta potential ([9]; listed as Formula I, R═C18H37 and R1═OCH3): +47 mV |
